Experimental data published in US12448365B2, “Aryl aminopyrimidines as dual MerTK and TYRO3 inhibitors and methods thereof” (The University of North Carolina at Chapel Hill, priority 2019, dated 2025).
Read-outs that look alike come from different tables or passages of the source.

Legend:
Tyro3 = Tyro3 (Homo sapiens (Human), UniProt Q06418); test: Microfluidic Capillary Electrophoresis (MCE) kinase activity assay, Tyro3; format: biochemical
Mer = Mer (Homo sapiens (Human), UniProt Q12866); test: Microfluidic Capillary Electrophoresis (MCE) kinase activity assay, Mer; format: biochemical
Chain of Mer (Q12866 21-999): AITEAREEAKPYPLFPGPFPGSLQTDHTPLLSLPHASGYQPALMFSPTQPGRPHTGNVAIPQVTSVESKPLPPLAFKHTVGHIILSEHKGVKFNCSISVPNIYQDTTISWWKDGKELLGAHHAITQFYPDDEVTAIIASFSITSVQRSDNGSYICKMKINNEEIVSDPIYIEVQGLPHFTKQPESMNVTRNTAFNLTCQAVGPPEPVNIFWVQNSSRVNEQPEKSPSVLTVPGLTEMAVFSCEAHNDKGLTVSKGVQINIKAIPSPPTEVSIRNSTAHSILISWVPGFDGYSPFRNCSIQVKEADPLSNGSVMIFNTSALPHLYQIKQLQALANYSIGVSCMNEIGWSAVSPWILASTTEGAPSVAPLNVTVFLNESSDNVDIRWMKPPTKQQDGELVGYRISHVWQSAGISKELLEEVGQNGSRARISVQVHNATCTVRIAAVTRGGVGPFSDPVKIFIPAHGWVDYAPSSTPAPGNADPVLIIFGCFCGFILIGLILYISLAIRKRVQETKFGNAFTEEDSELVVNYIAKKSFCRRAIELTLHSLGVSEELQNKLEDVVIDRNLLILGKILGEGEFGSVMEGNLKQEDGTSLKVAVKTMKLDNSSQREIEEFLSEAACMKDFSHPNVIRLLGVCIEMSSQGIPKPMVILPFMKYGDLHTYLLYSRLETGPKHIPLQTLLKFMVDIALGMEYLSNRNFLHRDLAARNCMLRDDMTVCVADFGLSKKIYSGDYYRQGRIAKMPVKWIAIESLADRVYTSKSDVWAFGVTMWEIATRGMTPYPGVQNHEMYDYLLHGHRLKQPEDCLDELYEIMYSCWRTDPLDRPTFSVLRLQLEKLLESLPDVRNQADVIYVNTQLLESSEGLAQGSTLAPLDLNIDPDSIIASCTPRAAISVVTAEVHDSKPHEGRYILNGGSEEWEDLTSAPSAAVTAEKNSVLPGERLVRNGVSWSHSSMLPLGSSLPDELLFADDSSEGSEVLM

[1] = MCE assay, Mer 2.0 nM, ATP 5.0 uM (at Km), 1.0 μM fluorescent substrate, 180 min incubation
[2] = MCE assay, Tyro 10 nM, ATP 21 uM (at Km), 1.0 μM fluorescent substrate, 180 min incubation

Chain of Tyro3 (Q06418 41-890): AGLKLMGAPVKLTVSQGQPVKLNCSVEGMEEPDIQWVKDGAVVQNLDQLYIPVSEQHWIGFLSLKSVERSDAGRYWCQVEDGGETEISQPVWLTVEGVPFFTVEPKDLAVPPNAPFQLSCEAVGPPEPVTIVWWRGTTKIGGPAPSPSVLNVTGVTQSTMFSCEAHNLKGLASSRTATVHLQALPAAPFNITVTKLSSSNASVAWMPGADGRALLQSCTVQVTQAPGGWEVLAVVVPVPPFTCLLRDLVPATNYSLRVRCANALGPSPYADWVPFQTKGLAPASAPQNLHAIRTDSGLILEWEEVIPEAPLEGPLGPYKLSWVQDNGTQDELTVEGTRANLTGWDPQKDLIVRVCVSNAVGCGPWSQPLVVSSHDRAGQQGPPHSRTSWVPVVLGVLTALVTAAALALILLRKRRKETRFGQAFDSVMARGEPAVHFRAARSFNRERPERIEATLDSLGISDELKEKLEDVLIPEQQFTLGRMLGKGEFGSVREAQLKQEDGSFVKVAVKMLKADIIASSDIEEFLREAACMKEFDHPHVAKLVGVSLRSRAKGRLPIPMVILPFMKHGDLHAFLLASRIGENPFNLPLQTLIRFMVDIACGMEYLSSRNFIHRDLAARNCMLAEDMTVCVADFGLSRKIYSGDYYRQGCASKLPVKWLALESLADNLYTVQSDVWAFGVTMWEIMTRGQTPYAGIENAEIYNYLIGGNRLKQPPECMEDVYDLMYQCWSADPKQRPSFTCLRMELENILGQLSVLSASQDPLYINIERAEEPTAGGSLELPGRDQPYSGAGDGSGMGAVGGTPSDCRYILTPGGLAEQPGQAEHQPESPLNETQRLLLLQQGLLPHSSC

Row | Compound | IC50 (Tyro3) | IC50 (Mer) | IC50 (Mer; [1]) | IC50 (Tyro3; [2])
1 | COc1cccc(Nc2ncc(C3CCN(C(=O)C4CCCC4)CC3)c(N[C@H]3CC[C@H](O)CC3)n2)c1 [Compound 1, cyclopentyl(4-(4-((trans-4-hydroxycyclohexyl)amino)-2-((3-methoxyphenyl)amino)pyrimidin-5-yl)piperidin-1-yl)methanone] | 0.1 to 1 µM | 0.1 to 1 µM | – | –
2 | O[C@H]1CC[C@H](Nc2nc(Nc3ccnc(Cl)c3)ncc2C2CCN(C3CCCC3)CC2)CC1 [Compound 12] | – | – | < 0.01 µM | < 0.01 µM
3 | O[C@H]1CC[C@H](Nc2nc(Nc3ccnc(Cl)c3)ncc2C2CCN(CC3CCCC3)CC2)CC1 [Compound 16] | – | – | < 0.01 µM | < 0.01 µM
4 | CC(F)(F)c1cc(Nc2ncc(C3CCN(CC4CCCC4)CC3)c(N[C@H]3CC[C@H](O)CC3)n2)ccn1 [Compound 18] | – | – | < 0.01 µM | < 0.01 µM
5 | COc1cc(Nc2ncc(C3CCN(C4CCCC4)CC3)c(N[C@H]3CC[C@H](NC(C)=O)CC3)n2)ccn1 [Compound 22] | 1 to 30 µM | 0.1 to 1 µM | – | –
6 | COc1cc(Nc2ncc(C3CCN(C4CCCC4)CC3)c(N[C@H]3CC[C@H](N(C)C)CC3)n2)ccn1 [Compound 24] | 0.1 to 1 µM | 0.01 to 0.1 µM | – | –
7 | CN1CCC(CN2CCC(c3cnc(Nc4ccnc(Cl)c4)nc3N[C@H]3CC[C@H](O)CC3)CC2)CC1 [Compound 29] | 0.01 to 0.1 µM | 0.01 to 0.1 µM | – | –
8 | O[C@H]1CC[C@H](Nc2nc(Nc3ccnc(Cl)c3)ncc2C2CCN(CC3CCC(F)(F)CC3)CC2)CC1 [Compound 30] | – | – | < 0.01 µM | < 0.01 µM
9 | Cc1cc(CN2CCC(c3cnc(Nc4ccnc(Cl)c4)nc3N[C@H]3CC[C@H](O)CC3)CC2)no1 [Compound 31] | 0.01 to 0.1 µM | – | < 0.01 µM | –
10 | O[C@H]1CC[C@H](Nc2nc(Nc3ccnc(Cl)c3)ncc2C2CCN(Cc3ccccc3)CC2)CC1 [Compound 32] | 0.01 to 0.1 µM | – | < 0.01 µM | –
11 | O[C@H]1CC[C@H](Nc2nc(Nc3ccnc(Cl)c3)ncc2C2CCN(CC3CCC3)CC2)CC1 [Compound 33] | – | – | < 0.01 µM | < 0.01 µM
12 | O[C@H]1CC[C@H](Nc2nc(Nc3ccnc(Cl)c3)ncc2C2CCN(CC3CCOCC3)CC2)CC1 [Compound 34] | 0.01 to 0.1 µM | – | < 0.01 µM | –
13 | O[C@H]1CC[C@H](Nc2nc(Nc3ccnc(F)c3)ncc2C2CCNCC2)CC1 [Compound 37] | 0.01 to 0.1 µM | – | < 0.01 µM | –
14 | O[C@H]1CC[C@H](Nc2nc(Nc3ccnc(C4CC4)c3)ncc2C2CCNCC2)CC1 [Compound 41] | 0.01 to 0.1 µM | 0.01 to 0.1 µM | – | –
15 | O[C@H]1CC[C@H](Nc2nc(Nc3ccnc(N4CCCC4)c3)ncc2C2CCNCC2)CC1 [Compound 43] | 1 to 30 µM | 0.1 to 1 µM | – | –
16 | CN1CCN(c2cc(Nc3ncc(C4CCNCC4)c(N[C@H]4CC[C@H](O)CC4)n3)ccn2)CC1 [Compound 44] | 0.1 to 1 µM | 0.01 to 0.1 µM | – | –
17 | O[C@H]1CC[C@H](Nc2nc(Nc3ccnc(N4CCCCC4)c3)ncc2C2CCNCC2)CC1 [Compound 45] | 1 to 30 µM | 1 to 30 µM | – | –
18 | O[C@H]1CC[C@H](Nc2nc(Nc3ccnc(Cl)c3)ncc2C2CCN(CC3CC3)CC2)CC1 [Compound 46] | – | – | < 0.01 µM | < 0.01 µM
19 | O[C@H]1CC[C@H](Nc2nc(Nc3ccnc(Cl)c3)ncc2C2CCN(c3ccccc3)CC2)CC1 [Compound 47, trans-4-((2-((2-Chloropyridin-4-yl)amino)-5-(1-phenylpiperidin-4-yl)pyrimidin-4-yl)amino)cyclohexan-1-ol] | 0.01 to 0.1 µM | 0.01 to 0.1 µM | – | –
20 | CC1(C)CC(N2CCC(c3cnc(Nc4ccnc(Cl)c4)nc3N[C@H]3CC[C@H](O)CC3)CC2)C1 [Compound 48] | – | – | < 0.01 µM | < 0.01 µM
21 | O[C@H]1CC[C@H](Nc2nc(Nc3ccnc(Cl)c3)ncc2C2CCN(C3CC(C4CC4)C3)CC2)CC1 (stereo partly drawn) [Compound 49] | – | – | < 0.01 µM | < 0.01 µM
22 | N#Cc1cc(Nc2ncc(C3CCN(CC4CCCC4)CC3)c(N[C@H]3CC[C@H](O)CC3)n2)ccn1 [Compound 55] | 0.01 to 0.1 µM | – | < 0.01 µM | –
23 | N#Cc1cc(Nc2ncc(C3CCN(CC4CCC(F)(F)CC4)CC3)c(N[C@H]3CC[C@H](O)CC3)n2)ccn1 [Compound 56] | 0.01 to 0.1 µM | – | < 0.01 µM | –

The remaining lines, values ahead:

Row | IC50 (Tyro3) | IC50 (Mer) | IC50 (Mer; [1]) | IC50 (Tyro3; [2]) | Compound
24 | 0.01 to 0.1 µM | 0.01 to 0.1 µM | – | – | COc1cc(Nc2ncc(C3CCN(C(=O)OC(C)(C)C)CC3)c(N[C@H]3CC[C@H](O)CC3)n2)ccn1 [Compound 2]
25 | 0.01 to 0.1 µM | – | < 0.01 µM | – | COc1cccc(Nc2ncc(C3CCN(CC4CCCC4)CC3)c(N[C@H]3CC[C@H](O)CC3)n2)c1 [Compound 4, trans-4-((5-(1-(cyclopentylmethyl)piperidin-4-yl)-2-((3-methoxyphenyl)amino)pyrimidin-4-yl)amino)cyclohexan-1-ol]
26 | 0.01 to 0.1 µM | – | < 0.01 µM | – | COc1cc(Nc2ncc(C3CCN(CC4CCCC4)CC3)c(N[C@H]3CC[C@H](O)CC3)n2)ccn1 [Compound 5]
27 | 0.01 to 0.1 µM | 0.01 to 0.1 µM | – | – | COc1cc(Nc2ncc(C3CCN(C)CC3)c(N[C@H]3CC[C@H](O)CC3)n2)ccn1 [Compound 6]
28 | 0.01 to 0.1 µM | 0.01 to 0.1 µM | – | – | Cc1cc(Nc2ncc(C3CCNCC3)c(N[C@H]3CC[C@H](O)CC3)n2)ccn1 [Compound 8]
29 | 0.01 to 0.1 µM | 0.01 to 0.1 µM | – | – | O[C@H]1CC[C@H](Nc2nc(Nc3ccnc(Cl)c3)ncc2C2CCNCC2)CC1 [Compound 9]
30 | 0.01 to 0.1 µM | 1 to 30 µM | – | – | Cc1cc(Nc2ncc(C3CCNCC3)c(N[C@H]3CC[C@H](O)CC3)n2)cc(C)n1 [Compound 10]
31 | 0.01 to 0.1 µM | – | < 0.01 µM | – | Cc1cc(Nc2ncc(C3CCN(C4CCCC4)CC3)c(N[C@H]3CC[C@H](O)CC3)n2)ccn1 [Compound 11, trans-4-((5-(1-cyclopentylpiperidin-4-yl)-2-((2-methylpyridin-4-yl)amino)pyrimidin-4-yl)amino)cyclohexan-1-ol]
32 | 0.01 to 0.1 µM | < 0.01 µM | – | – | O[C@H]1CC[C@H](Nc2nc(Nc3ccnc(C(F)(F)F)c3)ncc2C2CCN(C3CCCC3)CC2)CC1 [Compound 13]
33 | 0.01 to 0.1 µM | 0.01 to 0.1 µM | – | – | NC(=O)c1cc(Nc2ncc(C3CCN(C4CCCC4)CC3)c(N[C@H]3CC[C@H](O)CC3)n2)ccn1 [Compound 14]
34 | 0.01 to 0.1 µM | – | < 0.01 µM | – | Cc1cc(Nc2ncc(C3CCN(CC4CCCC4)CC3)c(N[C@H]3CC[C@H](O)CC3)n2)ccn1 [Compound 15]
35 | 0.01 to 0.1 µM | 0.01 to 0.1 µM | – | – | O[C@H]1CC[C@H](Nc2nc(Nc3ccnc(C(F)(F)F)c3)ncc2C2CCN(CC3CCCC3)CC2)CC1 [Compound 17]
36 | 0.01 to 0.1 µM | 0.1 to 1 µM | – | – | Cc1cc(Nc2ncc(C3CCN(CC4CCCC4)CC3)c(N[C@H]3CC[C@H](O)CC3)n2)cc(C)n1 [Compound 19]
37 | 0.01 to 0.1 µM | – | < 0.01 µM | – | NC(=O)c1cc(Nc2ncc(C3CCN(CC4CCCC4)CC3)c(N[C@H]3CC[C@H](O)CC3)n2)ccn1 [Compound 20]
38 | 0.01 to 0.1 µM | 0.01 to 0.1 µM | – | – | COc1cc(Nc2ncc(C3CCNCC3)c(N[C@H]3CC[C@H](NC(C)=O)CC3)n2)ccn1 [Compound 21]
39 | 0.01 to 0.1 µM | – | < 0.01 µM | – | COc1cc(Nc2ncc(C3CCN(C4CCCC4)CC3)c(N[C@H]3CC[C@H](N)CC3)n2)ccn1 [Compound 23]
40 | 0.01 to 0.1 µM | – | < 0.01 µM | – | COc1cc(Nc2ncc(C3CCN(C4CCCC4)CC3)c(N[C@H]3CC[C@H](O)CC3)n2)ccn1 [Compound 25]
41 | 0.01 to 0.1 µM | 0.01 to 0.1 µM | – | – | COc1cc(Nc2ncc(C3CCN(C(=O)C4CCCC4)CC3)c(N[C@H]3CC[C@H](O)CC3)n2)ccn1 [Compound 26, Cyclopentyl(4-(4-((trans-4-hydroxycyclohexyl)amino)-2-((2-methoxypyridin-4-yl)amino)pyrimidin-5-yl)piperidin-1-yl)methanone]
42 | 0.01 to 0.1 µM | 0.01 to 0.1 µM | – | – | O[C@H]1CC[C@H](Nc2nc(Nc3ccnc(Cl)c3)ncc2C2CCN(CC3COC3)CC2)CC1 [Compound 28]
